Among the data in PubChem BioAssay AID504765 (Sanford-Burnham Center for Chemical Genomics, 2011) are IC50 values, retold here.

The source made the active and inactive calls. No rule for the calls is given here.

The test has as its target glucose-6-phosphate dehydrogenase-6-phosphogluconolactonase (Plasmodium falciparum 3D7). Nature of the test: PfG6PD inhibitor potency, dose response, biochemical, fluorescence intensity (AID 504765). The conditions noted are these: Recombinant PfG6PD enzyme, fluorescence intensity (NADPH).

Regarding `CCOC(=O)c1c(OCC)[nH]c2c1cc(O)c1ccccc12`, the IC50 result is “inactive”.

Turning to `Cc1ccc(/C=C/C(=O)NCCc2cccc(Cl)c2)o1`, the half-maximal inhibitory concentration (IC50) is 7.59 µM.

On to `COc1c(O)ccc2c1CN1CCc3cc4c(cc3C1C2)OCO4` (centres undefined), for which the IC50 is 15.5 µM.

On to `COc1cc(CNc2ccc3[nH]c(=O)[nH]c3c2)ccc1OCc1ccccc1`, for which the IC50 entry is “inactive”.

For the molecule `C[c-]1[c-](C)[c-](C)[c-](C)[c-]1C.[Fe].c1cc2nccc(N3CCCC3)[c-]2c1` (centres undefined), the IC50 entry was “inactive”.

With `Clc1nssc1=Nc1nncs1`, the IC50 is 14.3 µM.

As to `Cc1ccc(-n2c(N)c(C(=O)N3CCN(C)CC3)sc2=S)cc1`, the IC50 is 16 µM.

As for `CC1=NOC(=O)/C1=C\c1ccc(-c2ccccc2Br)o1`, the IC50 result was “inactive”.

With `NC(=O)N/N=C/c1ccc(-n2nncc2-c2ccc(Cl)cc2)cc1`, the IC50 was 11.8 µM.

For `COc1cccc2nc3cc(C)c(C)cc3nc12`, the IC50 was 4.69 µM.

As for `Cc1ccc(Nc2cc(C)c(O)c(C)c2)cc1`, the IC50 was 6.16 µM.

For the molecule `S=C(NN=Cc1ccccn1)N(Cc1ccccn1)Cc1ccccn1`, the IC50 is 4.66 µM.

Turning to `Cn1sc2ccccc2c1=O`, the IC50 is 5.82 µM.

On to `O=C1CCN(c2ccccc2)N1`, for which the IC50 was 1.34 µM.
